One data set in a line: Tail bleeding assay. It is filed as in vivo, mouse. The following applies: heparin-treated mice; data not shown. How it is done:
Mice were anesthetized with ketamine/xyzaline and placed on a heating pad in prone position, the tip of the tail (5 mm) was excised with a sterile scalpel, and the tails were immediately immersed into isotonic saline solution (0.9%) warmed to 37° C. Bleeding time was assessed until cessation of blood flow from the tail for 1 minute.

Data set [1] relates to washed platelets from WT or 12-LOX−/− mice. Briefly: Platelet aggregation, washed murine platelets (lumi-aggregometer). It is filed as cell-based, mouse. The following applies: 10 min. How it is done: The 12-LOX null C57BL/6 (12-LOX^−/−) mice were generated using homozygous breeding pairs and wild-type (WT) C57BL/6 ([…]) mice were purchased (Jackson Laboratory). […] Mouse blood was diluted with equal volumes of Tyrode's buffer (10 mM HEPES, 11.9 mM sodium bicarbonate, 127.2 mM sodium chloride, 5 mM potassium chloride, 0.4 mM sodium phosphate monobasic, 1 mM magnesium chloride, and 5 mM D-glucose) and centrifuged at 200×g. Platelet-rich-plasma (PRP) was transferred to a tube containing 10× acid citrate dextrose solution (ACD) (2.5% sodium citrate, 1.5% citric acid, and 2% D-glucose) and apyrase (0.02 U/mL), and centrifuged at 2000×g. Platelet count was adjusted to 3×10^8 platelets/mL with Tyrode's buffer for all studies.
A lumi-aggregometer (Chrono-log model 700D) was used to measure platelet aggregation under stirring conditions (1100 rpm) at 37° C. Prior to agonist stimulation platelets were incubated with a preselected PUFA or oxylipin for 10 minutes.

In a further data set the test system is adenylyl cyclase. Briefly: LC/MS quantification of cAMP in washed human platelets. It is filed as cell-based. The following applies: 25 μM, 1 min; platelets pre-treated with 10 μM IBMX; vs DMSO. How it is done: Washed human platelets were treated with the specific ligand or vehicle control for 1 min at room temperature, and quenched with an equal volume of ice-cold 2× platelet lysis buffer containing protease and phosphatase inhibitors. Lysed platelet samples were centrifuged at 14,000 g for 7 min at 4° C. to pellet cytoskeleton and the supernatant was stored in −80° C.
To prepare the sample for LC/MS injection, 200 μL of the supernatant was spiked with 400 pg of adenosine-3′,5′-cyclic-13C5 monophosphate (^13C5-cAMP) (Toronto Research Chemicals, Inc.), an internal standard, and 600 μL of LC/MS grade acetonitrile (Fisher Scientific). The sample was briefly vortexed and centrifuged at 14,000 rpm for 10 min at 4° C. The supernatants were then air dried in a SpeedVac and reconstituted in 200 μL of LC/MS grade water and centrifuged at 10,000 rpm for 5 min at 4° C. and used for LC/MS injection.
The separation and detection of cAMP was performed on a Waters ACQUITY UPLC system equipped with a Xevo Triple Quadrupole Mass Spectrometer (TQ-S MS/MS). […]
The mass spectrometer was operated with an ESI source in positive mode. […] Cyclic AMP (cAMP) was quantitated using ^13C5-cAMP as the internal standard. […]

A further data set has as its system VASP (serine 157). As to the kind of experiment: VASP phosphorylation in human platelets. It is filed as cell-based. The following applies: 1 min. How it is done:
Washed platelets were treated with PUFA or PUFA metabolite (12(S)-HETrE or compound IIc) for one minute, then directly lysed in 5× Laemmeli sample buffer (1.5 M Tris-HCl, pH 6.8, glycerol, 5% β-mercaptoethanol, 10% sodium dodecyl sulfate (SDS), and 1% bromophenol blue). The samples were boiled for five minutes and then run on a 10% SDS-PAGE gel. The levels of total and phospho-VASP (serine 157) were quantified by Western Blot using an Odyssey imaging system (LI-CoR).

The test system of the next data set is Gαs. Briefly: [35S]GTPγS binding to immunoprecipitated Gαs, platelet membranes. In kind it is biochemical. The following applies: human platelet membranes, vs DMSO. As for the experimental part:
PRP was isolated from whole blood as described above and then incubated with 1 mM aspirin for 1 hour at 37° C. Platelets were pelleted at 2000 g for 10 min in the presence of 10×ACD and apyrase. The pelleted platelets were washed with Tyrode's and centrifuged at 2000×g with 10×ACD for 10 min at room temperature. The platelets were flash frozen with liquid nitrogen and then resuspended in cold detergent-free TME buffer (50 mM Tris-HCl, pH 7.5, 20 mM MgCl2, 2 mM EDTA, and 100 mM NaCl) with 1 μM GDP and protease and phosphatase inhibitors to lyse the platelets. The lysed platelets were centrifuged at 1500 g at 4° C. for 5 min. The supernatant was collected and centrifuged at 100,000×g for 30 min at 4° C. The pelleted membranes were resuspended in TME buffer with 1 μM GDP and stored at −80° C. prior to use. Fatty acid metabolites, agonists, or DMSO and [^35S]GTPγS (10 nM) were added to platelet membranes (60 μg/reaction) on ice, and the tubes were immediately transferred to a 30° C. water bath shaker for 20 min. The reaction was terminated by the addition of ice-cold IP buffer (50 mM Tris-HCl, pH 7.5, 20 mM MgCl2, 150 mM NaCl, 0.5% Nonidet P-40, 0.33% aprotinin, 0.1 mM GDP, and 0.1 mM GTP). The samples were pre-cleared with Protein A agarose beads and normal rabbit IgG for 30 min on a nutator at 4° C. and then aliquoted equally into two tubes containing either normal rabbit IgG or a Gs antibody that had been conjugated to Protein A agarose beads. The samples were incubated on a nutator for 1 hr at 4° C. and washed 4 times with IP buffer and 1 time in TME buffer. The samples were boiled in 0.5% SDS for 30 sec, and the supernatants were collected following brief centrifugation. The supernatants were analyzed in 8 mL of scintillation fluid. The background counts for the normal rabbit IgG (50-200 cpm) for each sample were subtracted from the anti-Gs immunoprecipitated samples prior to analyzing the data.
(GTPγS is a poorly hydrolysed GTP analogue; its binding reports G protein activation.)

Another data set has as its system washed human platelets. Briefly: Human platelet aggregation after pre-treatment with adenylyl cyclase inhibitor SQ 22536. In kind it is cell-based. The following applies: platelets pre-treated with SQ 22536 (25 μM, 20 min); iloprost 0.2 to 0.4 nM, 1 min; EC80 PAR4-AP. How it is done:
Blood from healthy donors was collected into vacutainers containing buffered sodium citrate, and platelets were isolated by serial centrifugation as described above for mouse platelets. The platelets were resuspended in Tyrode's buffer at 3×10^8 platelets/mL, unless otherwise specified.
A lumi-aggregometer (Chrono-log model 700D) was used to measure platelet aggregation under stirring conditions (1100 rpm) at 37° C. […]

The mark [2] stands for this setting: 12-LOX−/− mouse platelets, 10 μM PUFA, EC80 PAR4-AP (200 μM) or collagen (2 or 5 μg/mL), vs vehicle.
Where [3] appears, read: WT mouse platelets, 10 μM PUFA, EC80 PAR4-AP (100 μM) or collagen (5 μg/mL), vs DMSO.
Setting [4] is: 12-LOX−/− mouse platelets, 25 μM 12-LOX oxylipin, EC80 PAR4-AP (200 μM) or collagen (2 or 5 μg/mL), vs vehicle.
The mark [5] stands for this setting: WT mouse platelets, 25 μM 12-LOX oxylipin, EC80 PAR4-AP (100 μM) or collagen (5 μg/mL), vs vehicle.

For heparin, the bleeding time entry in “Tail bleeding assay” was “severe bleeding diathesis”.

As for `CCCCC/C=C\C/C=C\CCCCCCCC(=O)O` [LA, linoleic acid], the platelet aggregation entry in data set [1] (setting [2]) and in data set [1] (setting [3]) was “no inhibitory effect” each time.

Take `CCCCC/C=C\CC(/C=C/C=C\CCCCCCC(=O)O)OO` (stereo not drawn) [Compound 12-HpETrE]: the “level of intracellular cAMP” value in the data set on adenylyl cyclase is reported as “significant increase in the level of intracellular cAMP”. Moreover, the “VASP phosphorylation (S157)” value in the data set on VASP (serine 157) (25 μM, vs DMSO) is given as “enhanced VASP phosphorylation”. Moreover, the “[35S]GTPγS binding to immunoprecipitated Gαs” value with Gαs (25 μM) is “significant increase in [^35S]GTPγS binding”.

As to `CCCCC/C=C\C/C=C\C/C=C\CCCCCSc1n[nH]c(=O)[nH]1` [Compound IIc, 5-(((6Z,9Z,12Z)-octadeca-6,9,12-trien-1-yl)thio)-2,4-dihydro-3H-1,2,4-triazol-3-one], the “VASP phosphorylation (S157)” value with VASP (serine 157) (compound IIc, concentrations not given) is reported as “dose-dependent phosphorylation of VASP”.

As for `CC/C=C\C/C=C\CC(O)/C=C/C=C\C/C=C\CCCC(=O)O` (stereo not drawn) [Compound 12-HEPE, 12-hydroxy-5Z, 8Z, 10E, 14Z, 17Z-eicosapentaenoic acid], the platelet aggregation result in data set [1] (setting [4]) and in data set [1] (setting [5]) was “did not inhibit collagen- or PAR4-AP-induced aggregation” throughout.

`CCCCC/C=C\CC(O)/C=C/C=C\C/C=C\CCCC(=O)O` (stereo not drawn) [Compound 12-HETE, 12-hydroxy-5Z,8Z,10E,14Z-eicosatetraenoic]: the platelet aggregation result in data set [1] (setting [4]) and in data set [1] (setting [5]) was “no decrease in collagen- or PAR4-AP-mediated platelet aggregation” each time.

Turning to `CCCCC/C=C\C/C=C\C/C=C\C/C=C\CCCC(=O)O` [AA], the platelet aggregation result in data set [1] (setting [2]) and in data set [1] (setting [3]) was “no inhibitory effect” in each case.

`CC#CCC(C)[C@H](O)/C=C/[C@@H]1[C@H]2C/C(=C/CCCC(=O)O)C[C@H]2C[C@H]1O` (stereo partly drawn) [iloprost]: in the data set on washed human platelets, the PAR4-AP-mediated platelet aggregation entry is listed as “unable to inhibit PAR4-AP-mediated platelet aggregation”. In addition, the “[35S]GTPγS binding to immunoprecipitated Gαs” value in the data set with Gαs (iloprost 10 μM) was “significant increase in [^35S]GTPγS binding”.

(Values after patent US11111222B2, “Hydroxyeicosatrienoic acid compounds and their use as therapeutic agents” (THE REGENTS OF THE UNIVERSITY OF MICHIGAN, priority 2016, dated 2021).)
